# Several values for one entry are separate records, joined by “and”; a condition that tells them apart may be missing. Equal values may be shown once.
# Experiments:
# Assay type in all cases: binding
# [1] = molecular target: cynomolgus TfR1
# [2] = molecular target: T1, human TfR1 (Homo sapiens, UniProt P02786); test: biochemical; design: His6-tagged TfR1 (a.a. 89-760) (ACRO Biosystems, CD1-H5243 and TFR-C524a); His6; purchased R&D Systems or Acro Biosystems 2474-TR or CD1-H5243; conditions: Human TfR1 Kd (nM)
# [3] = molecular target: T1, human TfR1; test: biochemical; design: His6-tagged TfR1 (a.a. 89-760) (ACRO Biosystems, CD1-H5243 and TFR-C524a); His6; purchased R&D Systems or Acro Biosystems 2474-TR or CD1-H5243
# T1 sequence (P02786 89-760): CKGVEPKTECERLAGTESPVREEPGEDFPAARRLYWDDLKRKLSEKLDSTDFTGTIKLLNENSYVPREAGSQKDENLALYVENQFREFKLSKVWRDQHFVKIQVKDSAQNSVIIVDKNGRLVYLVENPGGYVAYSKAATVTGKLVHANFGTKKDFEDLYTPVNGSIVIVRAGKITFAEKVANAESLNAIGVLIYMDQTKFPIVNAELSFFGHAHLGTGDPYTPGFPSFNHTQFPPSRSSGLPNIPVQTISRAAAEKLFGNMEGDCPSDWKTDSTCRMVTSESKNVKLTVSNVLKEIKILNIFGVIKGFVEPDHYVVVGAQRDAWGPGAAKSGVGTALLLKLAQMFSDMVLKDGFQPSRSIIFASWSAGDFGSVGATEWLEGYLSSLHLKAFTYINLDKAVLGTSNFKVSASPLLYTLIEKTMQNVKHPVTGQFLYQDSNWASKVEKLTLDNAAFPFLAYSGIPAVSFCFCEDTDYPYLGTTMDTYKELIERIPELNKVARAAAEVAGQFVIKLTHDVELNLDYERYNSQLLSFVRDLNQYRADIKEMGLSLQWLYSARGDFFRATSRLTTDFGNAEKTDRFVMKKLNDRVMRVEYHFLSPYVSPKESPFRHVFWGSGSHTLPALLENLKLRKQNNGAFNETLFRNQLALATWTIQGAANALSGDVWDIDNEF
SMILES,Kd [1],Kd [2],Ki ([3]; Geomean Ki (μM)),Ki ([3]; Human TfR1 Ki (nM))
"CC[C@H](C)[C@@H]1NC(=O)[C@@H]2CSCC(=O)N3CN(CN(C3)C(=O)CSC[C@@H](C(=O)N[C@@H](CCC(=O)O)C(=O)N3CCC[C@H]3C(=O)N[C@@H](Cc3c[nH]c4ccccc34)C(N)=O)NC(=O)[C@H](Cc3ccc(O)cc3)NC(=O)[C@H](CO)NC1=O)C(=O)CSC[C@H](NC(=O)[C@H](C)N)C(=O)N[C@@H](CO)C(=O)N1CCC[C@H]1C(=O)N[C@@H](CC(=O)O)C(=O)N[C@@H](C)C(=O)N[C@@H](Cc1c[nH]cn1)C(=O)N[C@@H](CC(C)C)C(=O)NCC(=O)N2 [BCY17114, A-(SEQ ID NO: 9)-EPW]",845 nM,,,
"CC[C@H](C)[C@@H]1NC(=O)[C@@H]2CSCC(=O)N3CN(CN(C3)C(=O)CSC[C@@H](C(=O)N[C@@H](C)C(N)=O)NC(=O)[C@H](Cc3ccncc3)NC(=O)[C@H](CO)NC1=O)C(=O)CSC[C@H](NC(=O)[C@H](C)N)C(=O)N[C@@H](CO)C(=O)N1CCC[C@H]1C(=O)N[C@@H](CC(=O)O)C(=O)N[C@@H](C)C(=O)N[C@@H](Cc1c[nH]cn1)C(=O)N[C@@H](CC(C)C)C(=O)NCC(=O)N2 [BCY16032, A-(SEQ ID NO: 48)-A]",30000 nM,305 nM,0.654 µM,
"CC[C@H](C)[C@@H]1NC(=O)[C@@H]2CSCC(=O)N3CN(CN(C3)C(=O)CSC[C@@H](C(=O)N[C@@H](CCC(=O)O)C(=O)N3CCC[C@H]3C(=O)N[C@@H](Cc3c[nH]c4ccccc34)C(N)=O)NC(=O)[C@H](Cc3ccc(O)cc3)NC(=O)[C@H](CO)NC1=O)C(=O)CSC[C@H](NC(C)=O)C(=O)N[C@@H](CO)C(=O)N1CCC[C@H]1C(=O)N[C@@H](CC(=O)O)C(=O)N[C@@H](C)C(=O)N[C@@H](Cc1c[nH]cn1)C(=O)N[C@@H](CC(C)C)C(=O)NCC(=O)N2 [BCY17994, Ac-(SEQ ID NO: 9)-EPW]",688 nM,,0.008 µM,0.008 µM
"CC[C@H](C)[C@@H]1NC(=O)[C@@H]2CSCC(=O)N3CN(CN(C3)C(=O)CSC[C@@H](C(=O)N[C@@H](C)C(N)=O)NC(=O)[C@H](Cc3cccc4ccccc34)NC(=O)[C@H](CO)NC1=O)C(=O)CSC[C@H](NC(=O)[C@H](C)N)C(=O)N[C@@H](CO)C(=O)N1CCC[C@H]1C(=O)N[C@@H](CC(=O)O)C(=O)N[C@@H](C)C(=O)N[C@@H](Cc1c[nH]cn1)C(=O)N[C@@H](CC(C)C)C(=O)NCC(=O)N2 [BCY16029, A-(SEQ ID NO: 39)-A]",5480 nM,,,
"CC[C@H](C)[C@@H]1NC(=O)[C@@H]2CSCC(=O)N3CN(CN(C3)C(=O)CSC[C@H](NC(C)=O)C(=O)N[C@@H](C)C(=O)N3CCC[C@H]3C(=O)N[C@@H](CC(=O)O)C(=O)N[C@@H](C)C(=O)N[C@@H](Cc3c[nH]cn3)C(=O)N[C@@H](CC(C)C)C(=O)NCC(=O)N2)C(=O)CSC[C@@H](C(N)=O)NC(=O)[C@H](Cc2ccc(O)cc2)NC(=O)[C@H](CO)NC1=O [BCY17986, Ac-(SEQ ID NO: 24)]",4660 nM,,,
"CC[C@H](C)[C@@H]1NC(=O)[C@@H]2CSCC(=O)N3CN(CN(C3)C(=O)CSC[C@@H](C(=O)N[C@@H](CCC(=O)O)C(=O)N3CCC[C@@H]3C(=O)N[C@@H](Cc3c[nH]c4ccccc34)C(N)=O)NC(=O)[C@H](Cc3ccc(O)cc3)NC(=O)[C@H](CO)NC1=O)C(=O)CSC[C@H](NC(C)=O)C(=O)N[C@@H](CO)C(=O)N1CCC[C@H]1C(=O)N[C@@H](CC(=O)O)C(=O)N[C@@H](C)C(=O)N[C@@H](Cc1c[nH]cn1)C(=O)N[C@@H](CC(C)C)C(=O)NCC(=O)N2 [BCY18038, Ac-(SEQ ID NO: 9)-E[dP]W]",1650 nM,,,
"CC(C)C[C@@H]1NC(=O)[C@H](Cc2ccc(O)cc2)NC(=O)[C@H](C)NC(=O)[C@H](CC(=O)O)NC(=O)[C@@H]2CCCN2C(=O)[C@@H]2CCCN2C(=O)[C@@H](NC(=O)[C@H](C)N)CSCC(=O)N2CN3CN(C2)C(=O)CSC[C@@H](C(=O)N[C@@H](C)C(N)=O)NC(=O)[C@H](Cc2ccc(O)cc2)NC(=O)[C@H](CO)NC(=O)[C@H](C(C)(C)C)NC(=O)[C@H](CSCC3=O)NC(=O)CNC1=O [BCY16964, A-(SEQ ID NO: 22)-A]",514 nM,,,
"CC[C@H](C)[C@@H]1NC(=O)[C@@H]2CSCC(=O)N3CN(CN(C3)C(=O)CSC[C@@H](C(=O)N[C@@H](C)C(N)=O)NC(=O)[C@H](Cc3ccc(O)c(C(C)(C)C)c3)NC(=O)[C@H](CO)NC1=O)C(=O)CSC[C@H](NC(=O)[C@H](C)N)C(=O)N[C@@H](CO)C(=O)N1CCC[C@H]1C(=O)N[C@@H](CC(=O)O)C(=O)N[C@@H](C)C(=O)N[C@@H](Cc1c[nH]cn1)C(=O)N[C@@H](CC(C)C)C(=O)NCC(=O)N2 [BCY16079, A-(SEQ ID NO: 37)-A]",5660 nM,60 nM,,
"CC[C@H](C)[C@@H]1NC(=O)[C@@H]2CSCC(=O)N3CN(CN(C3)C(=O)CSC[C@H](NC(=O)[C@H](CC(N)=O)NC(=O)[C@H](Cc3c[nH]c4ccccc34)NC(=O)[C@@H](N)CC(N)=O)C(=O)N[C@@H](CO)C(=O)N3CCC[C@H]3C(=O)N[C@@H](CC(=O)O)C(=O)N[C@@H](C)C(=O)N[C@@H](Cc3c[nH]cn3)C(=O)N[C@@H](CC(C)C)C(=O)NCC(=O)N2)C(=O)CSC[C@@H](C(=O)N[C@@H](C)C(N)=O)NC(=O)[C@H](Cc2ccc(O)cc2)NC(=O)[C@H](CO)NC1=O [BCY17109, NWN-(SEQ ID NO: 9)-A]",281 nM and 535 nM,,0.009 µM,
"CC[C@H](C)[C@@H]1NC(=O)[C@@H]2CSCC(=O)N3CN(CN(C3)C(=O)CSC[C@H](NC(=O)[C@@H](NC(=O)[C@H](CCC(=O)O)NC(=O)[C@@H](N)CC(N)=O)C(C)C)C(=O)N[C@@H](CO)C(=O)N3CCC[C@H]3C(=O)N[C@@H](CC(=O)O)C(=O)N[C@@H](C)C(=O)N[C@@H](Cc3c[nH]cn3)C(=O)N[C@@H](CC(C)C)C(=O)NCC(=O)N2)C(=O)CSC[C@@H](C(=O)N[C@@H](C)C(N)=O)NC(=O)[C@H](Cc2ccc(O)cc2)NC(=O)[C@H](CO)NC1=O [BCY17112, NEV-(SEQ ID NO: 9)-A]",2600 nM,,,
"CC[C@H](C)[C@@H]1NC(=O)[C@@H]2CSCC(=O)N3CN(CN(C3)C(=O)CSC[C@H](NC(=O)[C@H](CC(N)=O)NC(=O)[C@H](Cc3cccc4ccccc34)NC(=O)[C@H](CC(N)=O)NC(C)=O)C(=O)N[C@@H](CO)C(=O)N3CCC[C@H]3C(=O)N[C@@H](CC(=O)O)C(=O)N[C@@H](C)C(=O)N[C@@H](Cc3c[nH]cn3)C(=O)N[C@@H](CC(C)C)C(=O)NCC(=O)N2)C(=O)CSC[C@@H](C(N)=O)NC(=O)[C@H](Cc2ccc(O)cc2)NC(=O)[C@H](CO)NC1=O [BCY18034, Ac-N[1Nal]N-(SEQ ID NO: 9)]",2080 nM,,,0.01 µM
"CC[C@H](C)[C@@H]1NC(=O)[C@@H]2CSCC(=O)N3CN(CN(C3)C(=O)CSC[C@@H](C(=O)N3CCC[C@H]3C(=O)N[C@H](C(=O)N[C@H](C(=O)N[C@@H](Cc3c[nH]cn3)C(N)=O)C(C)C)[C@@H](C)CC)NC(=O)[C@H](Cc3ccc(O)cc3)NC(=O)[C@H](CO)NC1=O)C(=O)CSC[C@H](NC(=O)[C@H](C)N)C(=O)N[C@@H](CO)C(=O)N1CCC[C@H]1C(=O)N[C@@H](CC(=O)O)C(=O)N[C@@H](C)C(=O)N[C@@H](Cc1c[nH]cn1)C(=O)N[C@@H](CC(C)C)C(=O)NCC(=O)N2 [BCY17120, A-(SEQ ID NO: 9)-PIVH]",1260 nM,,,
"CC[C@H](C)[C@@H]1NC(=O)[C@@H]2CSCC(=O)N3CN(CN(C3)C(=O)CSC[C@@H](C(=O)N[C@@H](CCC(=O)O)C(=O)N3CC[C@H]3C(=O)N[C@@H](Cc3c[nH]c4ccccc34)C(N)=O)NC(=O)[C@H](Cc3ccc(O)cc3)NC(=O)[C@H](CO)NC1=O)C(=O)CSC[C@H](NC(C)=O)C(=O)N[C@@H](CO)C(=O)N1CCC[C@H]1C(=O)N[C@@H](CC(=O)O)C(=O)N[C@@H](C)C(=O)N[C@@H](Cc1c[nH]cn1)C(=O)N[C@@H](CC(C)C)C(=O)NCC(=O)N2 [BCY18037, Ac-(SEQ ID NO: 9)-E[Aze]W]",1080 nM,,,
"CC[C@H](C)[C@@H]1NC(=O)[C@@H]2CSCC(=O)N3CN(CN(C3)C(=O)CSC[C@H](NC(=O)[C@H](CC(N)=O)NC(=O)[C@@H](Cc3c[nH]c4ccccc34)NC(=O)[C@H](CC(N)=O)NC(C)=O)C(=O)N[C@@H](CO)C(=O)N3CCC[C@H]3C(=O)N[C@@H](CC(=O)O)C(=O)N[C@@H](C)C(=O)N[C@@H](Cc3c[nH]cn3)C(=O)N[C@@H](CC(C)C)C(=O)NCC(=O)N2)C(=O)CSC[C@@H](C(N)=O)NC(=O)[C@H](Cc2ccc(O)cc2)NC(=O)[C@H](CO)NC1=O [BCY18035, Ac-N[dW]N-(SEQ ID NO: 9)]",10300 nM,,0.02 µM,
"CC[C@H](C)[C@@H]1NC(=O)[C@@H]2CSCC(=O)N3CN(CN(C3)C(=O)CSC[C@H](NC(C)=O)C(=O)N[C@@H](CO)C(=O)N3CC[C@H]3C(=O)N[C@@H](CC(=O)O)C(=O)N[C@@H](C)C(=O)N[C@@H](Cc3c[nH]cn3)C(=O)N[C@@H](CC(C)C)C(=O)NCC(=O)N2)C(=O)CSC[C@@H](C(N)=O)NC(=O)[C@H](Cc2ccc(O)cc2)NC(=O)[C@H](CO)NC1=O [BCY17988, Ac-(SEQ ID NO: 44)]",,649 nM,0.272 µM,0.213 µM
"CC[C@H](C)[C@@H]1NC(=O)[C@@H]2CSCC(=O)N3CN(CN(C3)C(=O)CSC[C@H](NC(=O)[C@H](CC(N)=O)NC(=O)[C@H](Cc3c[nH]c4ccccc34)NC(=O)[C@H](CC(N)=O)NC(C)=O)C(=O)N[C@@H](CO)C(=O)N3CCC[C@H]3C(=O)N[C@@H](CC(=O)O)C(=O)N[C@@H](C)C(=O)N[C@@H](Cc3c[nH]cn3)C(=O)N[C@@H](CC(C)C)C(=O)NCC(=O)N2)C(=O)CSC[C@@H](C(N)=O)NC(=O)[C@H](Cc2ccc(O)cc2)NC(=O)[C@H](CO)NC1=O [BCY17992, Ac-NWN-(SEQ ID NO: 9)]",535 nM,,,
